# Laboratory results: US10294269B2, “Dipeptidyl ketoamide compounds and their use for the treatment and/or prevention of fat accumulation” (LANDSTEINER GENMED, S.L., priority 2014, dated 2019)
# System: 3T3-L1 pre-adipocyte cell line
# Assay: Mouse 3T3-L1 pre-adipocyte cells differentiation assay (Nile Red lipid fluorescence)
# Format: cell-based
# Settings: % of adipogenesis inhibition; compound at 25 μM in differentiation medium (2 days) and insulin medium (2 days); 3T3-L1 cells
# Experimental: Mouse 3T3-L1 Pre-Adipocyte Cells Differentiation Assay
# Cell Culture and Treatment
# Mouse (Mus musculus) 3T3-L1 pre-adipocyte cell line was purchased at ATCC.
# Induction of adipocyte differentiation was performed according to Choi K C et al “The role of ghrelin and growth hormone secretagogues receptor on rat adipogenesis” Endocrinol 144: 754-759, 2003 with some modifications.
# Briefly, 3T3-L1 pre-adipocytes were seeded in 24 well culture plates at a density of 3×10^4 cells/well in growth medium (DMEM containing 4.5 g/L glucose, 1 mM sodium pyruvate, 2 mM L-glutamine, 100 μg/mL streptomycin/penicilline, 25 mM HEPES and 10% calf serum (heat inactivated)). The resulting solution is used as a blank in the measure of fluorescence described below.
# Cells were incubated at 37° C., 95% humidity and 10% CO2. Two days after reaching confluence (ninth day) growth medium was changed to differentiation medium (DMEM containing 4.5 g/L glucose, 2 mM L-glutamine, 100 μg/mL streptomycin/penicilline, 25 mM HEPES, 10% FBS (heat inactivated), 1 mM sodium pyruvate, 0.5 mM 3-isobutyl-1-methylxanthine, 0.25 μM dexamethasone, and 5 μg/mL insulin). After 48 h, the medium was replaced by insulin medium (DMEM containing 4.5 g/L glucose, 1 mM sodium pyruvate, 2 mM L-glutamine, 100 μg/mL streptomycin/penicillin, 25 mM HEPES, 10% FBS (inactivated) and 5 μg/mL insulin) for another 48 hours, and then incubated in 10% FBS/DMEM (same as insulin medium without insulin) for 4 days up to their complete differentiation.
# The compounds to be tested were added at the 25 μM concentration to the differentiation medium (2 days) and to the insulin medium (2 days).
# After incubation, the intracellular stored lipids were quantified by measuring the fluorescence after staining the lipids with the fluorescent dye Nile Red (9-diethylamino-5-benzo[α]phenoxazinone).
# To carry out said lipid measurement, cells were lysed in hypotonic buffer (1 mM Tris-HCl pH=7.5) containing 2 μg/ml of Nile Red (9-diethylamino-5-benzo[t]phenoxazinone) for 15 min at 37° C.
# Lysed cells were homogenized and TAG content was determined by monitoring Nile Red fluorescence in a laser spectral fluorometer. Excitation 522 nm; Emission 574 nm.
# For each compound to be tested the following fluorescence measures were recorded: • FC: Fluorescence of a sample of lysed cells incubated in the presence of the compound in both the differentiation medium and in the insulin medium. • FB: Fluorescence of a blank sample of sample of pre-adipocytes in growth medium. • FNC: Fluorescence of a sample of lysed cells incubated with the differentiation medium and insulin medium not comprising any additional compound.
# The inhibition of adipogenesis in the presence of the tested compounds is calculated from the following equation: % of adipogenesis inhibition=100−[100×((FC−FB)/(FNC−FB))]
# % of adipogenesis inhibition (reflecting the activity against 3T3-L1 cell differentiation into adipocytes) was determined for each compound, and the effect at the […] has been chosen as the most representative value as to be shown in the structure-activity table.
row,Compound,Adipogenesis inhibition score
1,N-[(1S)-1-(1-benzyl-2-tert-butylcarbamoyl-2-oxo-ethylcarbamoyl)-3-methyl-butyl]-benzamide [Example 52],++ (Inhibition between >15% and 30%)

# Same assay, conditions: Mus musculus, 48 h; % of adipogenesis inhibition; compound at 25 μM in differentiation medium (2 days) and insulin medium (2 days); 3T3-L1 cells; read-out: Adipogenesis inhibition score
row,Compound,inhibition at 25 µM [%]
1,"CCNC(=O)C(=O)C(Cc1ccccc1)NC(=O)[C@H](CC(C)C)NC(=O)c1ccccn1 (stereo partly drawn) [Example 4, N-((2S)-1-((4-(ethylamino)-3,4-dioxo-1-phenylbutan-2-yl)amino)-4-methyl-1-oxopentan-2-yl)picolinamide]",1 to 15
2,"CCNC(=O)C(=O)C(Cc1ccccc1)NC(=O)[C@H](CC(C)C)NC(=O)OC(C)(C)C (stereo partly drawn) [Example 64, tert-butyl (2S)-1-(4-(ethylamino)-3,4-dioxo-1-phenylbutan-2-ylamino)-4-methyl-1-oxopentan-2-ylcarbamate]",30 to 80
3,"CC(C)C[C@H](NC(=O)c1cncc(F)c1)C(=O)NC(Cc1ccccc1)C(=O)C(=O)NC(C)(C)C (stereo partly drawn) [Example 31, N-((2S)-1-(4-(tert-butylamino)-3,4-dioxo-1-phenylbutan-2-ylamino)-4-methyl-1-oxopentan-2-yl)-5-fluoronicotinamide]",1 to 15
4,"CC(C)C[C@H](NC(=O)c1ccccc1)C(=O)NC(Cc1ccccc1)C(=O)C(=O)NC1CCCCC1 (stereo partly drawn) [Example 58, N-[(1S)-1-(1-benzyl-2-cyclohexylcarbamoyl-2-oxo-ethylcarbamoyl)-3-methyl-butyl]-benzamide]",30 to 80
5,"COc1cccc(C(=O)N[C@@H](CC(C)C)C(=O)NC(Cc2ccccc2)C(=O)C(=O)NC(C)(C)C)c1 (stereo partly drawn) [Example 7, N-((2S)-1-((4-(tert-butylamino)-3,4-dioxo-1-phenylbutan-2-yl)amino)-4-methyl-1-oxopentan-2-yl)-3-methoxybenzamide]",15 to 30
6,"CC(C)C[C@H](NC(=O)c1cncnc1)C(=O)NC(Cc1ccccc1)C(=O)C(=O)NC(C)(C)C (stereo partly drawn) [Example 8, N-((2S)-1-((4-(tert-butylamino)-3,4-dioxo-1-phenylbutan-2-yl)amino)-4-methyl-1-oxopentan-2-yl)pyrimidine-5-carboxamide]",1 to 15
7,"CCNC(=O)C(=O)C(Cc1ccccc1)NC(=O)[C@H](CC(C)C)NC(=O)c1ccccc1 (stereo partly drawn) [Example 1, N-((2S)-1-((4-(ethylamino)-3,4-dioxo-1-phenylbutan-2-yl)amino)-4-methyl-1-oxopentan-2-yl)benzamide]",15 to 30
8,"CC(C)C[C@H](NC(=O)c1cccnn1)C(=O)NC(Cc1ccccc1)C(=O)C(=O)NC(C)(C)C (stereo partly drawn) [Example 55, Pyridazine-3-carboxylic acid [(1S)-1-(1-benzyl-2-tert-butylcarbamoyl-2-oxo-ethylcarbamoyl)-3-methyl-butyl]-amide]",15 to 30
9,"CC(C)C[C@H](NC(=O)c1ccccc1)C(=O)NC(Cc1ccccc1)C(=O)C(=O)NC(C)(C)C (stereo partly drawn) [Example 18, N-((2S)-1-((4-(tert-butylamino)-3,4-dioxo-1-phenylbutan-2-yl)amino)-4-methyl-1-oxopentan-2-yl)benzamide]",15 to 30
10,"CC(C)C[C@H](NC(=O)c1cnccc1Cl)C(=O)NC(Cc1ccccc1)C(=O)C(=O)NC(C)(C)C (stereo partly drawn) [Example 60, N-[(1S)-1-(1-benzyl-2-tert-butylcarbamoyl-2-oxo-ethylcarbamoyl)-3-methyl-butyl]-4-chloro-nicotinamide]",30 to 80
11,"Cc1ccc(C(=O)N[C@@H](CC(C)C)C(=O)NC(Cc2ccccc2)C(=O)C(=O)NC(C)(C)C)cn1 (stereo partly drawn) [Example 25, N-((2S)-1-((4-(tert-butylamino)-3,4-dioxo-1-phenylbutan-2-yl)amino)-4-methyl-1-oxopentan-2-yl)-6-methylnicotinamide]",30 to 80
12,"CONC(=O)C(=O)C(Cc1ccccc1)NC(=O)[C@H](CC(C)C)NC(=O)c1ccc2c(c1)OCO2 (stereo partly drawn) [Example 62, Benzo[1,3]dioxole-5-carboxylic acid [(1S)-1-(1-benzyl-2-methoxycarbamoyl-2-oxo-ethylcarbamoyl)-3-methyl-butyl]-amide]",30 to 80
13,"CCNC(=O)C(=O)C(Cc1ccccc1)NC(=O)[C@H](CC(C)C)NC(=O)NC(C)(C)C (stereo partly drawn) [Example 65, (2S)-2-(3-tert-butylureido)-N-(4-(ethylamino)-3,4-dioxo-1-phenylbutan-2-yl)-4-methylpentanamide]",15 to 30
14,"CONC(=O)C(=O)C(Cc1ccccc1)NC(=O)[C@H](CC(C)C)NC(=O)c1cccc(OC)c1 (stereo partly drawn) [Example 61, N-[(1S)-1-(1-benzyl-2-methoxycarbamoyl-2-oxo-ethylcarbamoyl)-3-methyl-butyl]-3-methoxy-benzamide]",30 to 80
15,"CC(C)C[C@H](NC(=O)c1cnccn1)C(=O)NC(Cc1ccccc1)C(=O)C(=O)NC(C)(C)C (stereo partly drawn) [Example 15, N-((2S)-1-((4-(tert-butylamino)-3,4-dioxo-1-phenylbutan-2-yl)amino)-4-methyl-1-oxopentan-2-yl)pyrazine-2-carboxamide]",1 to 15
16,"CC(C)C[C@H](NC(=O)c1ccccc1)C(=O)NC(Cc1ccccc1)C(=O)C(=O)NCc1ccccc1 (stereo partly drawn) [Example 59, N-[(1S)-1-(1-benzyl-2-benzylcarbamoyl-2-oxo-ethylcarbamoyl)-3-methyl-butyl]-benzamide]",30 to 80
17,"CC(C)C[C@H](NC(=O)c1ccccc1)C(=O)NC(Cc1ccccc1)C(=O)C(=O)NC1CC1 (stereo partly drawn) [Example 20, N-((2S)-1-((4-(cyclopropylamino)-3,4-dioxo-1-phenylbutan-2-yl)amino)-4-methyl-1-oxopentan-2-yl)benzamide]",30 to 80
18,"COCCOC(=O)N[C@@H](CC(C)C)C(=O)NC(Cc1ccccc1)C(=O)C(=O)NOC (stereo partly drawn) [Example 67, [(1S)-1-(1-benzyl-2-methoxycarbamoyl-2-oxo-ethylcarbamoyl)-3-methyl-butyl]-carbamic acid 2-methoxy-ethyl ester]",15 to 30
19,"CC(C)C[C@H](NC(=O)c1ccc(C(F)(F)F)nc1)C(=O)NC(Cc1ccccc1)C(=O)C(=O)NC(C)(C)C (stereo partly drawn) [Example 32, N-((2S)-1-(4-(tert-butylamino)-3,4-dioxo-1-phenylbutan-2-ylamino)-4-methyl-1-oxopentan-2-yl)-6-(trifluoromethyl)nicotinamide]",30 to 80
20,"CC(C)C[C@H](NC(=O)c1cnc2ccccc2c1)C(=O)NC(Cc1ccccc1)C(=O)C(=O)NC(C)(C)C (stereo partly drawn) [Example 54, Quinoline-3-carboxylic acid [(1S)-1-(1-benzyl-2-tert-butylcarbamoyl-2-oxo-ethylcarbamoyl)-3-methyl-butyl]-amide]",30 to 80
21,"CC(C)C[C@H](NC(=O)c1cccnc1)C(=O)NC(Cc1ccccc1)C(=O)C(=O)NC(C)(C)C (stereo partly drawn) [Example 21, N-((2S)-1-((4-(tert-butylamino)-3,4-dioxo-1-phenylbutan-2-yl)amino)-4-methyl-1-oxopentan-2-yl)nicotinamide]",1 to 15
22,"CCNC(=O)C(=O)C(Cc1ccccc1)NC(=O)[C@H](CC(C)C)NC(=O)c1cncnc1 (stereo partly drawn) [Example 6, N-((2S)-1-((4-(ethylamino)-3,4-dioxo-1-phenylbutan-2-yl)amino)-4-methyl-1-oxopentan-2-yl)pyrimidine-5-carboxamide]",15 to 30
23,"Cc1ccccc1C(=O)N[C@@H](CC(C)C)C(=O)NC(Cc1ccccc1)C(=O)C(=O)NC(C)(C)C (stereo partly drawn) [Example 56, N-[(1S)-1-(1-benzyl-2-tert-butylcarbamoyl-2-oxo-ethylcarbamoyl)-3-methyl-butyl]-2-methyl-benzamide]",15 to 30
24,"CC(C)C[C@H](NC(=O)c1cccc2cnccc12)C(=O)NC(Cc1ccccc1)C(=O)C(=O)NC(C)(C)C (stereo partly drawn) [Example 11, N-((2S)-1-((4-(tert-butylamino)-3,4-dioxo-1-phenylbutan-2-yl)amino)-4-methyl-1-oxopentan-2-yl)isoquinoline-5-carboxamide]",30 to 80
25,"CC(C)C[C@H](NC(=O)C1CCOCC1)C(=O)NC(Cc1ccccc1)C(=O)C(=O)NC(C)(C)C (stereo partly drawn) [Example 57, Tetrahydro-pyran-4-carboxylic acid [(1S)-1-(1-benzyl-2-tert-butylcarbamoyl-2-oxo-ethylcarbamoyl)-3-methyl-butyl]-amide]",15 to 30
